{"source": "patent US20210138274A1", "about": "“ACCUMULATIVE BORON 10 MEDICINE FOR BORON NEUTRON CAPTURE THERAPY FOR SELECTIVELY OR LOCALLY TARGETING TUMOR TISSUES IN SHORT TIME” (HIROSAKI UNIVERSITY, priority 2018, published 2021)", "key": {"[1]": {"tested_on": "tumor-bearing mice (murine bladder cancer cell MBT2)", "test": "Tumor accumulation ability test, Comparative Example 1 (^10B levels in organs, ICP-AES method)", "type": "in vivo", "details": "FIG. 2", "protocol": "Additionally, as Comparative Example 1, a tumor accumulation ability test was similarly performed using R-D-fructopyranose, 2′ position of which is esterified with [10B]boronophenylalanine group represented by the formula (a) (hereinafter, simply referred to as “^10BPA-fructose”). 100 μL (2,000 μg) of ^10BPA-fructose whose dosage amount was increased to 100 mg/kg was administered to the tail vein of tumor-bearing mice. ^10B levels (ppm) in the respective organs of the tumor-bearing mice were measured 20, 40, and 60 minutes after the tail-vein administration by ICP-AES method. FIG. 2 is a drawing indicating ^10B levels (ppm) in the organs of the tumor-bearing mice at 20, 40, and 60 minutes after tail-vein administration of 100 μL (2,000 μg) of ^10BPA-fructose."}, "[2]": {"tested_on": "tumor-bearing mice seeded in the thigh with murine bladder cancer cell strain MBT2", "test": "Neutron irradiation test (tumor volume, hot group vs cold group)", "type": "in vivo", "details": "7 mg/kg tail vein, neutron irradiation 40 minutes after administration; for effect of reducing the tumor volume, hot group versus cold group: tumor volumes (mm^3) measured for 21 days, FIGS. 5, 6", "protocol": "IF7-^10BPA was administered to the tail vein of tumor-bearing mice seeded in the thigh with murine bladder cancer cell strain MBT2 at a dosage amount of 7 mg/kg. Thereafter, tumor volumes (mm^3) thereof were measured for 21 days, with respect to a group (hot group), which was irradiated 40 minutes after the tail-vein administration with neutrons for 30 minutes under the following conditions and a group (cold group), which was not irradiated. In the drawing, * represents p<0.05.\n(1) Neutron fluence (cm^−2·s^−1) 2.1E^+12 (2.1×10^12) to 4.6E^+12 (2) Physical dose (Gy) Thermal neutrons: 2.8E^−1 to 6.1E^−1 Epithermal neutrons: 3.0E^−2 to 6.5E^−2 Fast neutrons: 2.1E^−1 to 4.6E^−1 Gamma rays: 2.1E^−1 to 4.6E^−1 Total: 8.9E^−1 to 1.5E^0\nAdministration was performed in the same manner as in Example 5, except that IF7-^10BSH was administered instead of IF7-^10BPA. Thereafter, tumor volumes (mm^3) were measured for 21 days with respect to the hot group which was irradiated with neutrons 40 minutes after the administration and the cold group which was not irradiated.\nIF7-^10BPA was administered to tail vein of the tumor-bearing mice seeded with murine bladder cancer cell strain MBT2 at a dosage amount of 7 mg/kg. Thereafter, tumor volumes (mm^3) were measured for 21 days with respect to a hot group which was irradiated with neutrons 40 minutes after the tail-vein administration and a cold group which was not irradiated.\nThe administration was performed in the same manner as in Example 7, except that 1BPA was administered instead of IF7-^10BPA, tumor volumes (mm^3) were measured for 21 days with respect to the hot group irradiated 40 minutes after the administration with neutrons and the cold group which was not irradiated."}, "[3]": {"tested_on": "tumor-bearing mice seeded on the thigh with a murine bladder cancer cell MBT2", "details": "mouse, in vivo", "protocol": "Tumor accumulation ability was tested in tumor-bearing mice (7 mm in tumor diameter) seeded on the thigh with a murine bladder cancer cell MBT2, with respect to IF7-^10BPA synthesized in Synthesis Example 1 above and IF7-^10BSH synthesized in Synthesis Example 2 above. 100 μL (175 μg) of IF7-^10BPA or IF7-^10BSH adjusted to 7 mg/kg was administered to the tail vein of the tumor-bearing mice. ^10B levels (ppm) in the organs of the tumor-bearing mice were measured 5, 10, and 20 minutes after the tail-vein administration by the PGA-method.\n^10B levels in the respective organs of the tumor-bearing mice were measured in the same manner as in Example 1, except that the measurement was performed 40 minutes after the administration in addition to 5, 10 and 20 minutes, the number of n in the respective data was 3 or more, and the measurement results were indicated in violin plots.\n^10B levels in the respective organs of the tumor-bearing mice were measured in the same manner as in Example 3, except that instead of IF7-^10BPA, [10B]boronophenylalanine (^10BPA) in the same concentration was administered. The results are indicated in violin plots in FIG. 3B.\n^10B levels in the respective organs of the tumor-bearing mice were measured in the same manner as in Comparative Example 2, except that the concentration of ^10BPA was changed from 7 mg/kg to 100 mg/kg. […]"}}, "note": "Entries after “also recorded” stand apart in the source; their conditions may differ. Where no end group is shown, it is not given here. Side-chain parts run from the residue outwards. EMCS = N-(6-maleimidocaproyloxy)succinimide crosslinker", "data": [{"substance": "R-D-fructopyranose, 2′ position of which is esterified with [10B]boronophenylalanine group represented by the formula (a) [^10BPA-fructose]", "values": [{"measurement": "accumulation of ^10B in the tumor tissue", "setting": "[1]; 100 mg/kg (100 μL, 2,000 μg) tail vein, 20, 40, and 60 minutes after the administration", "value": "did not accumulate at all in the tumor tissue"}, {"measurement": "discrimination of the tumor tissue from the other organs (^10B levels)", "setting": "[1]; 100 mg/kg tail vein, 20, 40, and 60 minutes", "value": "did not significantly discriminate the tumor tissue from the other organs"}]}, {"substance": "IF7-^10BSH: peptide IFLLWQRKRR (SEQ ID NO: 3) crosslinked with EMCS between lysine amino group and thiol group of sodium [10B]borocaptate (IFLLWQRK([EMCS-sodium (10B)borocaptate])RR)", "values": [{"measurement": "effect of reducing the tumor volume, hot group versus cold group", "setting": "[2]", "value": "effect of reducing the tumor volume was pronounced"}]}, {"substance": "IF7-^10BPA: peptide IFLLWQRCRR (SEQ ID NO: 2) crosslinked with EMCS between cysteine thiol and terminal amino group of a ^10B boronophenylalanine compound (IFLLWQRC([EMCS-(10B)boronophenylalanine])RR)", "values": [{"measurement": "^10B level in the tumor compared with ^10BPA 100 mg/kg (Comparative Example 3)", "setting": "[3]", "value": "not inferior"}, {"measurement": "effect of reducing the tumor volume, hot group IF7-^10BPA (Example 7) versus hot group ^10BPA (Comparative Example 5)", "setting": "[2]; 21 days, FIGS. 6A, 6B", "value": "effect of reducing the tumor volume was greater"}, {"measurement": "effect of reducing the tumor volume, hot group versus cold group", "setting": "[2]", "value": "effect of reducing the tumor volume was pronounced; also recorded: more pronounced in the hot group"}]}]}
